Patent US20250032476A1, “ALPHA-2A ADRENERGIC RECEPTOR MODULATORS AND USES THEREOF” (The Regents of the University of California, priority 2021, published 2025)
Where two headings read alike, the source gives them in different places.

Columns and labels:
[1] = target: T1, ALPHA-2A ADRENERGIC RECEPTOR (Homo sapiens (Human), UniProt P08913); assay: Gi recruitment (G protein); format: cell-based; details: for Emax: read-out: G protein Emax (%); for functional classification (agonist / weak agonist): Table 6, result in words
[2] = target: T1, ALPHA-2A ADRENERGIC RECEPTOR; assay: Arrestin recruitment; format: cell-based
[3] = Pharmacokinetics in mice (plasma, brain, CSF); format: in vivo; details: for AUC / Cmax: mouse, plasma
Description: Pharmacokinetics. Pharmacokinetic experiments were performed by Bienta (Enamine Biology Services) in accordance with Enamine pharmacokinetic study protocols and Institutional Animal Care and Use Guidelines (protocol number 1-2/2020). […] In each compound study, nine time points (5, 15, 30, 60, 120, 240, 360, 480 and 1440 min) were collected, each of the time point treatment group included 3 animals. There was also a control group of one animal. In the ‘9087, ‘7075, ‘4622 studies, male C57BL/6N mice were used, for PS75 CD-1 mice, and for ‘2998 male Balb/cAnN mice. For all compound studies the animals were randomly assigned to the treatment groups before the pharmacokinetic study; all animals were fasted for 4 h before dosing. For injections, ‘9087 was dissolved in Captisol—water (40%:60%, w/v), ‘4622 was dissolved in a 20% Kolliphor HS—physiological saline solution, and ‘7075, PS75, and ‘2998 were dissolved in a 20% 2-HPBCD—aqueous solution. The batches of working formulations were prepared 10 minutes prior to the in vivo study.
(§1) Mice were injected i.p. with 2,2,2-tribromoethanol at 150 mg/kg prior to drawing CSF and blood. CSF was collected under a stereomicroscope from cisterna magna using 1 mL syringes. Blood collection was performed from the orbital sinus in microtainers containing K3EDTA. Animals were sacrificed by cervical dislocation after the blood samples collection. Blood samples were centrifuged 10 min at 3000 rpm. Brain samples (right lobe) were weighed and transferred into 1.5 ml tubes. All samples were immediately processed, flash-frozen and stored at −70° C. until subsequent analysis.
Plasma samples (40 μL) were mixed with 200 μL of internal standard (IS) solution. After mixing by pipetting and centrifuging for 4 min at 6000 rpm, 4 μL of each supernatant was injected into the LC-MS/MS system. Solutions of internal standards were used to quantify compounds in the plasma samples. […] After this, the samples were centrifuged for 4 min at 14,000 rpm, and supernatant was injected into LC-MS/MS system. CSF samples (2 μL) were mixed with 40 μL of an internal stock solution. After mixing by pipetting and centrifuging for 4 min at 6,000 rpm, 5 μL of each supernatant was injected into LC-MS/MS system.
(§2) Analyses of plasma, brain and CSF samples were conducted at Enamine/Bienta. The concentrations of compounds in plasma and brain samples were determined using high performance liquid chromatography/tandem mass spectrometry (HPLC-MS/MS). Data acquisition and system control was performed using Analyst 1.5.2 software (AB Sciex, Canada). […] Pharmacokinetic data analysis was performed using noncompartmental, bolus injection or extravascular input analysis models in WinNonlin 5.2 (PharSight).
as §1, with “mL” for “ml”
as §2
Additional pharmacokinetic experiments were performed by Sai Life Sciences (Hyderabad, India) in accordance with the Sai Study Protocol SAIDMPK/PK-22-04-0340. […] Testing was done in C57BL/6 mice.

human α2AAR = human α2AAR (Homo sapiens (Human), UniProt P08913); assay: Gαi G protein activation, BRET biosensor assay in HEK293T cells; details: HEK-293T, read-out: Gαi Emax
Description: Bioluminescense resonance energy transfer. G protein mediated activation of human α2AAR and D2long was monitored with Gαi1-RLucII (71, 72) together with Gβ1 and Gγ1-GFP10. Arrestin recruitment was performed by enhanced bystander BRET using CAAX-rGFP and β-arrestin-2-RLucII as biosensors (all biosensors are provided from M. Bouvier, Université de Montréal, Canada) (71, 73) in the presence of GRK2 as described (66, 74). In brief, HEK293T cells were transfected with a total amount of 3.3 μg DNA per 10^6 cells using linear polyethyleneimine (PEI, Polysciences, 3:1 PEI:DNA ratio) and transferred into 96-well half-area plates (Greiner, Frickenhausen, Germany) at a density of 10,000 cells per well and incubated for 48 hrs. Medium was exchanged with PBS (Hank's balanced salt solution) and cells were stimulated with ligands at 37° C. for 10 min for Gαi stimulation or arrestin recruitment, respectively.

[4] = Gi recruitment, Tables 7-9, read-out: G protein EC50
[5] = C57BL/6N ('9087), C57BL/6 (PS75), iv, I.V. 10 mg/kg
[6] = C57BL/6N ('9087), C57BL/6 (PS75), po, P.O. 30 mg/kg
[7] = Gi recruitment, Table 6, read-out: EC50

T1 sequence (P08913 whole entry): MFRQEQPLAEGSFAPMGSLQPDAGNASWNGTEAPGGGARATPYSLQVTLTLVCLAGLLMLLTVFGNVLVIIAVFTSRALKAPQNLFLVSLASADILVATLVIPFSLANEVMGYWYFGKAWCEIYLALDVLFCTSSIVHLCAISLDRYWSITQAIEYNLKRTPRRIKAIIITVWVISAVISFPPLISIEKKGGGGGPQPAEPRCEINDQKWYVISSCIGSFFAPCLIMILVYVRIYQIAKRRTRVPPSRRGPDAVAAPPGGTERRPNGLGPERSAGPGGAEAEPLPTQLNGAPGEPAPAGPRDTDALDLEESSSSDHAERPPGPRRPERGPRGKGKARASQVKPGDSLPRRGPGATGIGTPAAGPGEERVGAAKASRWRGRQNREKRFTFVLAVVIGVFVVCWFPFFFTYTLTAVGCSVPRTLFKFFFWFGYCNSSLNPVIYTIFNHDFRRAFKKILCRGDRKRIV
Sequence of human α2AAR (P08913 whole entry): as above

Molecule: 3-Methyl-N^1-(pyridin-2-yl)benzene-1,4-diamine [Compound 5822]
- EC50 [1, 4]: 1100 nM

Molecule: 4-(1,2,5,6-tetrahydropyridin-3-yl)-1H-indole [PS-NN04]
- G protein Emax (%) ([1]; Gi recruitment, Tables 7-9): 63%
- EC50 [1, 4]: 130 nM
- Arrestin Emax (%) ([2]; Tables 7-9): <10%

Molecule: 4-Methyl-5-(1,2,5,6-tetrahydropyridin-3-yl)-1H-pyrrolo[2,3-b]pyridine [Compound 9661]
- EC50 [1, 4]: 680 nM

Molecule: N#Cc1cc2[nH]ncc2cc1-c1ccc(N)nc1 [BSC2998-E02]
- EC50 [1, 4]: 2900 nM
- Emax ([1]; Gi recruitment, Tables 7-9): 14%
- Arrestin effect at 100 μM [2]: 25% at 100 μM

Molecule: CN(c1cccc(Cl)c1)c1cc(N)ccn1 [Compound 2029, N^2-(3-Chlorophenyl)-N^2-methylpyridine-2,4-diamine]
- EC50 [1, 4]: 1400 nM

Molecule: C1=C(c2cccc3ccccc23)CNCC1 [Compound 3461, 5-(Naphthalen-1-yl)-1,2,3,6-tetrahydropyridine]
- EC50 [1, 4]: 450 nM

Molecule: C1=C(c2cccc3c2CCC3)CNCC1 [Compound 3827, 5-(2,3-dihydro-1H-inden-4-yl)-1,2,3,6-tetrahydropyridine]
- EC50 [1, 4]: 390 nM

Molecule: Cc1ccc(Nc2ccccn2)cc1C [Compound 4472, N-(3,4-Dimethylphenyl)pyridin-2-amine]
- EC50 [1, 4]: 3300 nM

Molecule: Nc1ccnc(Oc2ccc(F)cc2)c1 [Compound 4783, 2-(4-Fluorophenoxy)pyridin-4-amine]
- EC50 [1, 4]: 580 nM

Molecule: Cc1c(-c2cccnc2N)ccc2[nH]ncc12 [Compound 5193, 3-(4-Methyl-1H-indazol-5-yl)pyridin-2-amine]
- EC50 [1, 4]: 3100 nM

Molecule: Cc1cc(-c2ccc3[nH]ncc3c2C)cnc1N [Compound 5649, 3-Methyl-5-(4-methyl-1H-indazol-5-yl)pyridin-2-amine]
- EC50 [1, 4]: 1000 nM

Molecule: CN(c1ccc(N)c(F)c1)c1ccccn1 [Compound 6254, 3-Fluoro-N^1-methyl-N^1-(pyridin-2-yl)benzene-1,4-diamine]
- EC50 [1, 4]: 5400 nM

Molecule: Nc1ccc(Nc2ccccn2)cc1Cl [Compound 7502, 3-Chloro-N^1-(pyridin-2-yl)benzene-1,4-diamine]
- EC50 [1, 4]: 460 nM

Molecule: Nc1ncccc1-c1ccc2scnc2c1 [Compound 8723, 3-(Benzo[d]thiazol-5-yl)pyridin-2-amine]
- EC50 [1, 4]: 1300 nM

Molecule: c1ccc2c(Nc3ccncc3)cncc2c1 [Compound 9087, N-(pyridin-4-yl)isoquinolin-4-amine]
- AUC [3, 5]: 1750 ng·h/mL
- Cmax [3, 5]: 2020 ng/mL
- AUC [3, 6]: 8430 ng·h/mL
- Cmax [3, 6]: 2720 ng/mL
- AUC Brain ([3]; I.P. 10 mg/kg): 439000 ng·min/mL
- AUC CSF ([3]; I.P. 10 mg/kg): 154000 ng·min/mL
- Cmax Brain ([3]; I.P. 10 mg/kg): 5960 ng/mL
- Cmax CSF ([3]; I.P. 10 mg/kg): 447 ng/mL
- Cmax Brain ([3]; I.V. 10 mg/kg): 6590 ng/mL
- Cmax Brain ([3]; P.O. 30 mg/kg): 14000 ng/mL
- AUC ([3]; ip, I.P. 10 mg/kg): 1830 ng·h/mL
- Cmax ([3]; ip, I.P. 10 mg/kg): 1440 ng/mL

Molecule: Nc1ncccc1-c1ccc2[nH]ncc2c1 [Compound 9241, 3-(1H-Indazol-5-yl)pyridin-2-amine]
- EC50 [1, 4]: 2100 nM

Molecule: C=C(c1ccccc1)c1cccnc1N [Compound 9280]
- EC50 [1, 4]: 2600 nM

Molecule: CN(c1cccc(O)c1)c1cc(N)ccn1 [Compound 9448, 3-((4-Aminopyridin-2-yl)(methyl)amino)phenol]
- EC50 [1, 4]: 2900 nM

Molecule: Cc1cc(Nc2ccncc2)c2ccccc2n1 [Compound 9506, 2-methyl-N-(pyridin-4-yl)quinolin-4-amine]
- functional classification (agonist / weak agonist) ([1]; Gi recruitment): weak agonist
- EC50 [1, 7]: 950 nM

Molecule: Cc1coc2ccc(C3=CCCNC3)cc12 [Compound 9677, 5-(3-Methylbenzofuran-5-yl)-1,2,3,6-tetrahydropyridine]
- EC50 [1, 4]: 170 nM

Molecule: C=C(c1ccccc1)c1c(F)ccnc1N [Compound 9689]
- EC50 [1, 4]: 7300 nM

Molecule: C1=C(c2ccc3c(c2)CCO3)CNCC1 [Compound 9700, 5-(2,3-Dihydrobenzofuran-5-yl)-1,2,3,6-tetrahydropyridine]
- EC50 [1, 4]: 800 nM

Molecule: Cc1cccc(N(C)c2ccc(N)nc2)c1 [Compound 9878, N^5-methyl-N^5-(m-tolyl)pyridine-2,5-diamine]
- EC50 [1, 4]: 1100 nM

Molecule: NC[C@H](O)c1ccc(O)c(O)c1 [NorEpi, norepinephrine, reference compound]
- Emax (human α2AAR): 100%

Molecule: COc1ccc2c(Nc3ccncc3)cccc2c1 [PS73]
- EC50 [1, 7]: 50 nM

Molecule: Cc1cc2c(Nc3ccncc3)cccc2cn1 [PS74]
- functional classification (agonist / weak agonist) ([1]; Gi recruitment): agonist
- EC50 [1, 7]: 450 nM

Molecule: Fc1ccc2cncc(Nc3ccncc3)c2c1 [PS76]
- functional classification (agonist / weak agonist) ([1]; Gi recruitment): agonist
- EC50 [1, 7]: 89 nM

Molecule: CN1CCc2c(Nc3ccncc3)cccc2C1=O [PS77]
- functional classification (agonist / weak agonist) ([1]; Gi recruitment): agonist
- EC50 [1, 7]: 1200 nM

Molecule: CN1C(=O)CCc2c(Nc3ccncc3)cccc21 [PS78]
- functional classification (agonist / weak agonist) ([1]; Gi recruitment): agonist
- EC50 [1, 7]: 43 nM

Molecule: COc1cccc2c(Nc3ccncc3)cncc12 [PS79]
- functional classification (agonist / weak agonist) ([1]; Gi recruitment): agonist
- EC50 [1, 7]: 100 nM

Molecule: Fc1cccc2c(Nc3ccncc3)cncc12 [PS82]
- functional classification (agonist / weak agonist) ([1]; Gi recruitment): agonist
- EC50 [1, 7]: 230 nM

Molecule: Oc1ccc2c(Nc3ccncc3)cccc2c1 [PS85]
- functional classification (agonist / weak agonist) ([1]; Gi recruitment): agonist
- EC50 [1, 7]: 87 nM

Molecule: N#Cc1ccc(C2=CCCNC2)c2cccnc12 [PS-NN05]
- Emax ([1]; Gi recruitment, Tables 7-9): < 5%
- Emax ([2]; Tables 7-9): < 10%

Molecule: C1=C(c2cccc3ncncc23)CNCC1 [PS-NN06]
- Emax ([1]; Gi recruitment, Tables 7-9): < 10%
- Emax ([2]; Tables 7-9): < 10%

Molecule: Nc1ccc(-c2cc([N+](=O)[O-])c3[nH]ncc3c2)cn1 [TP70, 5-(7-Nitro-1H-indazol-5-yl)pyridin-2-amine]
- EC50 [1, 4]: 3200 nM
- Emax ([1]; Gi recruitment, Tables 7-9): -27%
- Emax ([2]; Tables 7-9): < 10%

Molecule: Nc1ccc(-c2cc(Cl)c3[nH]ncc3c2)cn1 [TP73, 5-(7-Chloro-1H-indazol-5-yl)pyridin-2-amine]
- EC50 [1, 4]: 8700 nM
- Emax ([1]; Gi recruitment, Tables 7-9): 27%
- Emax ([2]; Tables 7-9): < 10%

Molecule: Nc1ccc(-c2cc3cn[nH]c3cc2Cl)cn1 [TP74, 5-(6-Chloro-1H-indazol-5-yl)pyridin-2-amine]
- EC50 [1, 4]: 200 nM
- Emax ([1]; Gi recruitment, Tables 7-9): 64%
- Emax ([2]; Tables 7-9): < 10%

Molecule: Nc1ccc(-c2cc3cn[nH]c3cc2F)cn1 [TP75, 5-(6-Fluoro-1H-indazol-5-yl)pyridin-2-amine]
- EC50 [1, 4]: 89 nM
- Emax ([1]; Gi recruitment, Tables 7-9): 18%
- Emax ([2]; Tables 7-9): < 10%

Molecule: Nc1ccc(-c2cc3cn[nH]c3cc2[N+](=O)[O-])cn1 [TP78, 5-(6-Nitro-1H-indazol-5-yl)pyridin-2-amine]
- EC50 [1, 4]: 910 nM
- Emax ([1]; Gi recruitment, Tables 7-9): 51%
- Emax ([2]; Tables 7-9): < 10%

Molecule: COc1cc2[nH]ncc2cc1-c1ccc(N)nc1 [TP79, 5-(6-Methoxy-1H-indazol-5-yl)pyridin-2-amine]
- Emax ([1]; Gi recruitment, Tables 7-9): < 6%
- Emax ([2]; Tables 7-9): < 10%

Molecule: O=C1CCc2ccc(C3=CCCNC3)cc21 [TP81]
- EC50 [1, 4]: 3000 nM
- Emax ([1]; Gi recruitment, Tables 7-9): 79%
- Emax ([2]; Tables 7-9): < 10%

Molecule: Nc1ccc(-c2ccc3[nH]ncc3c2F)cn1 [TP84, 5-(4-Fluoro-1H-indazol-5-yl)pyridin-2-amine]
- EC50 [1, 4]: 1100 nM
- Emax ([1]; Gi recruitment, Tables 7-9): 49%
- Emax ([2]; Tables 7-9): < 10%

Molecule: Nc1ccc(-c2ccc3[nH]ncc3c2Cl)cn1 [TP85, 5-(4-Chloro-1H-indazol-5-yl)pyridin-2-amine]
- EC50 [1, 4]: 220 nM
- Emax ([1]; Gi recruitment, Tables 7-9): 81%
- Arrestin effect at 100 μM [2]: 34% at 100 μM

Molecule: Nc1ccc(-c2cc(C(F)(F)F)c3[nH]ncc3c2)cn1 [TP87, 5-(7-(Trifluoromethyl)-1H-indazol-5-yl)pyridin-2-amine]
- G protein effect at 100 μM ([1]; at 100 μM): 27% at 100 μM
- Emax ([2]; Tables 7-9): < 10%

Molecule: O=C1CCc2cc(C3=CCCNC3)ccc21 [TP90]
- Emax ([1]; Gi recruitment, Tables 7-9): < 5%
- Emax ([2]; Tables 7-9): < 5%
